Data taken from patent US11230526B1, “Cylcoalkenyl derivatives useful as agonists of the GPR120 and/or GPR40 receptors” (Janssen Pharmaceutica NV, priority 2018, dated 2022).
pEC50: −log10 of the molar value.

Assays:
Human GPR120 short form = target: T1, Human GPR120 short form (Homo sapiens, UniProt Q5NUL3); experiment: Human GPR120 calcium flux assay, Procedure Calcium B (4200 cells/well); type: cell-based
T1 construct: expressed in transfected cells
T1 sequence (Q5NUL3 1-361): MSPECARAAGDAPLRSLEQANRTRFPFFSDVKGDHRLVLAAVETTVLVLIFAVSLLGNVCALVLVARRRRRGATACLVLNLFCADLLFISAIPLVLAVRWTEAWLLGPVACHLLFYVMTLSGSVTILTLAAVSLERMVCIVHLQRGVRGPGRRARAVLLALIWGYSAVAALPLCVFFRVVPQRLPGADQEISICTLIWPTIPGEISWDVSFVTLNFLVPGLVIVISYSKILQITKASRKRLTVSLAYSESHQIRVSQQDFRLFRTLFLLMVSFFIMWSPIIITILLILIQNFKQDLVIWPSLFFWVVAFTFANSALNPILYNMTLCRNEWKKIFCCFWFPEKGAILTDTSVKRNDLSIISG
Experimental: Human GPR120 in Calcium Flux Assay
These cells are first loaded with the Ca^+2 sensitive dye, Fluo-4 NW. Upon stimulation, intracellular released Ca^+2 can bind to the dye and alter its fluorescence intensity. This increase in fluorescence signal, and thus the flux in intracellular [Ca^2+], is detected and quantitated by fluorescence imaging using a FLIPR reader. The effect of the agonist is measured as a function of concentration and used to calculate an EC50 based upon a response curve.
In this procedure 4200 cells/well were employed.
A Human GPR120 clone (Genbank accession number NM_001195755.1) was placed into the pcDNA3.1 mammalian expression vector carrying the neomycin resistance gene. A stable mammalian cell was generated by placing the above clone into a HEK293 background. […] Cells were split 2 times a week to keep the cells in the log-phase growth. […]
The assay was performed on a FLIPR plate reader using the following parameters. Baseline was read for 10 seconds at 1 sec intervals. The program was set to transfer 10 μL of ligand from compound plate to cell plate after baseline reading. Aspiration was executed at: 10 μL/sec speed, 4.6 μL height, Dispensing was executed at: 30 μL/sec speed, 45 μL height. After compound addition, each well was read for 300 sec, with measurements collected at 1 sec intervals.
The kinetic data from the FLIPR was based upon a 5 minute window for data collection. The fluorescence of each sample well was used for individual calculations of a normalized RFU value, which was defined as maximum response minus the minimum response. The normalized fluorescence reading (RFU) was calculated as follows: RFU=Fmax−Fmin
The Fitting Equation was: Y=Bottom+(Top-Bottom)/(1+10^((Log EC50−X)*HillSlope)), where X is the log of the concentration and Y is the response.

human GPR40 = target: T2, human GPR40 (Homo sapiens, UniProt O14842); experiment: GPR40 calcium flux assay, human GPR40; type: cell-based; settings: HEK293 cells stably expressing GPR40; table does not say human or rat
T2 construct: expressed in transfected cells
Experimental: Compounds were tested in a calcium flux assay using transfected HEK293 cells stably expressing either human GPR40 or rat GPR40. Human GPR40 expressing cells were cultured in DMEM−High Glucose media supplemented with 10% fetal bovine serum, 1×L-Glutamine, 1×Penicillin/Streptomycin and 500 μg/mL G418. Rat GPR40 expressing cells were cultured in DMEM−High Glucose media supplemented with 10% fetal bovine serum and 1 μg/mL puromycin. Cells were plated into poly-D-lysine coated 384-well plates and cultured overnight in a 37° C. humidified tissue culture incubator under 5% CO2/[…] atmosphere.
On the day of the experiment, the culture media was replaced with assay buffer (HBSS, 20 mM HEPES, 0.1% BSA) and the cells incubated at 37° C. for 1 h. Calcium-sensitive fluorescent dye (Fluo 8 No-Wash Calcium Dye, ABD Bioquest) was then added and the cells incubated for another 30 min at 37° C. followed by 15 min at room temperature while protected from the light. The cell plate and a plate of diluted compounds of Formula (I) were loaded into a fluorescent plate reader that added compounds onto the cells while measuring the fluorescence intensity of each well. The plate reader recorded fluorescence intensity at 1 second intervals for 8 min and provided the data for analysis in an Excel format. EC50 values were calculated using Prism (GraphPad) software.

T2 sequence (O14842 whole entry): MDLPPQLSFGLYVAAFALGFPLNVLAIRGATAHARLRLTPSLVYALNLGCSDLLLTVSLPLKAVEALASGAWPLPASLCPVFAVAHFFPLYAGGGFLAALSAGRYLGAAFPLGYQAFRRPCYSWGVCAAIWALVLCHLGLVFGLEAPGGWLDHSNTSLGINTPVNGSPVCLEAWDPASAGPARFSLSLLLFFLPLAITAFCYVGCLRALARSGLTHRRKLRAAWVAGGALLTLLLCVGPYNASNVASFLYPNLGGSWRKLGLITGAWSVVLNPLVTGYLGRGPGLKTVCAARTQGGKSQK

Cc1ccc(C2=C(COc3ccc(CCC(=O)O)c(C(F)(F)F)c3)CC(F)(F)C2)cc1 [Compound 249, 3-[4-[[4,4-difluoro-2-(p-tolyl)cyclopenten-1-yl]methoxy]-2-(trifluoromethyl)phenyl]Propanoic Acid]
pEC50 (Human GPR120 short form): 6.76
pEC50 (human GPR40): 6.33

Cc1ccc(C2=C(COc3ccc(CCC(=O)O)c(Cl)c3)CC(F)(F)C2)cc1 [Compound 250, 3-[2-chloro-4-[[4,4-difluoro-2-(p-tolyl)cyclopenten-1-yl]methoxy]phenyl]Propanoic Acid]
pEC50 (Human GPR120 short form): 7.12
pEC50 (human GPR40): 5.83

O=C(O)CCc1ccc(OCC2=C(c3ccc(Cl)cc3)CC(F)(F)C2)cc1Cl [Compound 251, 3-[2-chloro-4-[[2-(4-chlorophenyl)-4,4-difluoro-cyclopenten-1-yl]methoxy]phenyl]Propanoic Acid]
pEC50 (Human GPR120 short form): 6.71
pEC50 (human GPR40): 6.24

Cc1c(CCC(=O)O)cc(F)c(OCC2=C(c3ccc(F)cc3)CCC2)c1C [Compound 254, 3-[5-fluoro-4-[[2-(4-fluorophenyl)cyclopenten-1-yl]methoxy]-2,3-dimethyl-phenyl]Propanoic Acid]
pEC50 (Human GPR120 short form): 6.23
pEC50 (human GPR40): < 5.30

COc1cc(C)ccc1C1=C(COc2ccc(CCC(=O)O)cc2)CCC1 [Compound 255]
pEC50 (Human GPR120 short form): < 5.30
pEC50 (human GPR40): 5.89

Cc1ccccc1C1=C(COc2ccc(CCC(=O)O)c(C(F)(F)F)c2)CCC1 [Compound 257, 3-[4-[[2-(o-tolyl)cyclopenten-1-yl]methoxy]-2-(trifluoromethyl)phenyl]Propanoic Acid]
pEC50 (Human GPR120 short form): 5.58
pEC50 (human GPR40): 6.47

O=C(O)CCc1ccc(OCC2=C(c3ccccc3)CCC2)cc1C(F)(F)F [Compound 258, 3-[4-[(2-phenylcyclopenten-1-yl)methoxy]-2-(trifluoromethyl)phenyl]Propanoic Acid]
pEC50 (Human GPR120 short form): 6.21
pEC50 (human GPR40): 6.32

O=C(O)CCc1ccc(OCC2=C(c3ccccc3)CCC2)cc1Cl [Compound 259, 3-[2-chloro-4-[(2-phenylcyclopenten-1-yl)methoxy]phenyl]Propanoic Acid]
pEC50 (Human GPR120 short form): 5.91
pEC50 (human GPR40): 5.80

O=C(O)CCc1ccc(OCC2=C(c3ccc(F)cc3)CCC2)cc1Cl [Compound 260, 3-[2-chloro-4-[[2-(4-fluorophenyl)cyclopenten-1-yl]methoxy]phenyl]Propanoic Acid]
pEC50 (Human GPR120 short form): 6.27
pEC50 (human GPR40): 6.31

COc1cc(C2=C(COc3ccc(CCC(=O)O)cc3)CCC2)ccc1C [Compound 261]
pEC50 (Human GPR120 short form): 5.81
pEC50 (human GPR40): 5.79

Cc1cc(OCC2=C(c3ccccc3C)CCC2)c(F)cc1CCC(=O)O [Compound 262, 3-[5-fluoro-2-methyl-4-[[2-(o-tolyl)cyclopenten-1-yl]methoxy]phenyl]Propanoic Acid]
pEC50 (Human GPR120 short form): < 5.30
pEC50 (human GPR40): 5.89

O=C(O)CCc1ccc(OCC2=C(c3cccc(F)c3)CCC2)cc1C(F)(F)F [Compound 263, 3-[4-[[2-(3-fluorophenyl)cyclopenten-1-yl]methoxy]-2-(trifluoromethyl)phenyl]Propanoic Acid]
pEC50 (Human GPR120 short form): 6.58
pEC50 (human GPR40): 6.87

Cc1ccc(C2=C(COc3cc(C)c(CCC(=O)O)cc3F)CCC2)cc1F [Compound 264, 3-[5-fluoro-4-[[2-(3-fluoro-4-methyl-phenyl)cyclopenten-1-yl]methoxy]-2-methyl-phenyl]Propanoic Acid]
pEC50 (Human GPR120 short form): 6.99
pEC50 (human GPR40): 5.80

Cc1cc(OCC2=C(c3ccccc3Cl)CCC2)c(F)cc1CCC(=O)O [Compound 265, 3-[4-[[2-(2-chlorophenyl)cyclopenten-1-yl]methoxy]-5-fluoro-2-methyl-phenyl]Propanoic Acid]
pEC50 (Human GPR120 short form): 5.92
pEC50 (human GPR40): 5.94

[2H]C([2H])([2H])c1ccc(C2=C(COc3ccc(CCC(=O)O)c(C(F)(F)F)c3)CCC2)cc1 [Compound 268-D, 3-[4-[[2-[4-(trideuteriomethyl)phenyl]cyclopenten-1-yl]methoxy]-2-(trifluoromethyl)phenyl]Propanoic Acid]
pEC50 (Human GPR120 short form): 6.16
pEC50 (human GPR40): 6.00

O=C(O)CCc1ccc(OCC2=C(c3ccc(Br)cc3)CCC2)cc1C(F)(F)F [Compound 269, 3-[4-[[2-(4-bromophenyl)cyclopenten-1-yl]methoxy]-2-(trifluoromethyl)phenyl]Propanoic Acid]
pEC50 (Human GPR120 short form): 5.65
pEC50 (human GPR40): 6.22

Cc1ccc(C2=C(COc3cc(C)c(CCC(=O)O)cc3F)CCC2)c(F)c1 [Compound 270, 3-[5-fluoro-4-[[2-(2-fluoro-4-methyl-phenyl)cyclopenten-1-yl]methoxy]-2-methyl-phenyl]Propanoic Acid]
pEC50 (Human GPR120 short form): 6.72
pEC50 (human GPR40): 5.83

O=C(O)CCc1ccc(OCC2=C(c3ccc(C(F)(F)F)cc3)CCC2)cc1Cl [Compound 272, 3-[2-chloro-4-[[2-[4-(trifluoromethyl)phenyl]cyclopenten-1-yl]methoxy]phenyl]Propanoic Acid]
pEC50 (Human GPR120 short form): 5.65
pEC50 (human GPR40): 6.58

Cc1ccc(C2=C(COc3ccc(CCC(=O)O)c(Cl)c3)CCC2)c(F)c1 [Compound 273, 3-[2-chloro-4-[[2-(2-fluoro-4-methyl-phenyl)cyclopenten-1-yl]methoxy]phenyl]Propanoic Acid]
pEC50 (Human GPR120 short form): 6.67
pEC50 (human GPR40): 5.98

O=C(O)CCc1ccc(OCC2=C(c3ccc(Cl)c(F)c3)CCC2)cc1Cl [Compound 274, 3-[2-chloro-4-[[2-(4-chloro-3-fluoro-phenyl)cyclopenten-1-yl]methoxy]phenyl]Propanoic Acid]
pEC50 (Human GPR120 short form): 6.29
pEC50 (human GPR40): 6.67

O=C(O)CCc1ccc(OCC2=C(c3ccc(Cl)cc3F)CCC2)cc1Cl [Compound 275]
pEC50 (Human GPR120 short form): 6.51
pEC50 (human GPR40): 6.54

O=C(O)CCc1ccc(OCC2=C(c3ccc(Br)cc3)CCC2)cc1Cl [Compound 276, 3-[4-[[2-(4-bromophenyl)cyclopenten-1-yl]methoxy]-2-chloro-phenyl]Propanoic Acid]
pEC50 (Human GPR120 short form): 6.37
pEC50 (human GPR40): 6.71

Cc1cc(OCC2=C(c3ccccc3)CCC2)c(F)cc1CCC(=O)O [Compound 277, 3-[5-fluoro-2-methyl-4-[(2-phenylcyclopenten-1-yl)methoxy]phenyl]Propanoic Acid]
pEC50 (Human GPR120 short form): 6.10
pEC50 (human GPR40): 5.57

COc1ccc(C2=C(COc3cc(C)c(CCC(=O)O)cc3F)CCC2)c(C)c1 [Compound 278, 3-[5-fluoro-4-[[2-(4-methoxy-2-methyl-phenyl)cyclopenten-1-yl]methoxy]-2-methyl-phenyl]Propanoic Acid]
pEC50 (Human GPR120 short form): < 5.30
pEC50 (human GPR40): 6.52

COc1ccc(C2=C(COc3cc(C)c(CCC(=O)O)cc3F)CCC2)cc1 [Compound 279, 3-[5-fluoro-4-[[2-(4-methoxyphenyl)cyclopenten-1-yl]methoxy]-2-methyl-phenyl]Propanoic Acid]
pEC50 (Human GPR120 short form): 6.31
pEC50 (human GPR40): 5.45

Cc1cc(OCC2=C(c3ccc(Cl)c(F)c3)CCC2)c(F)cc1CCC(=O)O [Compound 280, 3-[4-[[2-(4-chloro-3-fluoro-phenyl)cyclopenten-1-yl]methoxy]-5-fluoro-2-methyl-phenyl]Propanoic Acid]
pEC50 (Human GPR120 short form): 6.46
pEC50 (human GPR40): 6.33

Cc1cc(OCC2=C(c3ccc(Cl)cc3F)CCC2)c(F)cc1CCC(=O)O [Compound 281, 3-[4-[[2-(4-chloro-2-fluoro-phenyl)cyclopenten-1-yl]methoxy]-5-fluoro-2-methyl-phenyl]Propanoic Acid]
pEC50 (Human GPR120 short form): 6.50
pEC50 (human GPR40): 6.32

Cc1ccc(C2=C(COc3ccc(CCC(=O)O)c(C(F)(F)F)c3)CCC2)cc1F [Compound 282, 3-[4-[[2-(3-fluoro-4-methyl-phenyl)cyclopenten-1-yl]methoxy]-2-(trifluoromethyl)phenyl]Propanoic Acid]
pEC50 (Human GPR120 short form): 6.72
pEC50 (human GPR40): 6.61
